Our source for the IC50 values is US8609847B2, “Dihydroquinolinone derivatives” (Taisho Pharmaceutical Co., Ltd, priority 2009, dated 2013).

pIC50: −log10 of the molar value.

This assay deals with T1, human H3 receptor (Homo sapiens, UniProt Q9Y5N1).
T1 construct: purchased Perkin Elmer ES-392-M400UA; host or cells: CHO-K1 cells (recombinant expression), membrane preparation
T1 sequence (Q9Y5N1 whole entry): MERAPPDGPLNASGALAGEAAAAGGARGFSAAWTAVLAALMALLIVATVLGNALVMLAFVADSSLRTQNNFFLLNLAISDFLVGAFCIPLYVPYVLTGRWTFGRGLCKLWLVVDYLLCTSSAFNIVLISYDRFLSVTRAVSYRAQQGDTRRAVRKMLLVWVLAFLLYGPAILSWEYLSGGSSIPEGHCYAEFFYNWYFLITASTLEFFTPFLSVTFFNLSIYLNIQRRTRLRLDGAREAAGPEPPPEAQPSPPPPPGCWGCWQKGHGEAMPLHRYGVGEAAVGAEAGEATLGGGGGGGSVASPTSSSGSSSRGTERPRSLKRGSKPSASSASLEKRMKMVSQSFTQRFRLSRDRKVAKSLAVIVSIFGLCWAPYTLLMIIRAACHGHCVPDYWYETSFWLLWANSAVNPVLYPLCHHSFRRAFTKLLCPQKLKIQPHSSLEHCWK
Kind of assay: H3 Receptor Binding Test. The settings on record: 50% inhibition of R(−)-α-methyl[3H]histamine (1 nM) binding; membrane preparation of human H3 receptor-expressing CHO-K1 cells. The protocol: A membrane preparation of human H3 receptor-expressing CHO-K1 cells (Perkin Elmer, ES-392-M400UA, 15 μg protein/200 μl), R(−)-α-methyl[^3H]histamine (Amersham, TRK-1017, specific activity: 1.74 TBq/mmol, 1 nM) and a test drug were reacted at room temperature for 1 hour. After completion of the reaction, the reaction mixture was subjected to suction filtration through a 0.3% polyethyleneimine-treated glass filter (GF/C). The glass filter was washed five times with 50 mM Tris-HCl washing solution (pH 7.4) containing 5 mM EDTA. After washing, the glass filter was dried and a scintillator was added thereto, followed by measurement of radioactivity on the filter using a liquid scintillation counter.
Binding of R(−)-α-methyl[^3H]histamine in the presence of 10 μM R(−)-α-methylhistamine was defined as non-specific binding, and the difference between total binding and non-specific binding of R(−)-α-methyl[^3H]histamine was defined as specific binding of R(−)-α-methyl[^3H]histamine. A fixed concentration (1 nM) of R(−)-α-methyl[^3H]histamine was reacted under the above conditions with each test drug at various concentrations to obtain an inhibition curve. The inhibition curve was used to determine the concentration (IC50) of each test drug required for 50% inhibition of R(−)-α-methyl[^3H]histamine binding.
As to `C[C@@H]1CCCN1CCCOc1ccc2c(c1)CCC(=O)N2c1cccnc1` [Compound No. 35, 6-{3-[(2R)-2-methylpyrrolidin-1-yl]propoxy}-1-(pyridin-3-yl)-3,4-dihydroquinolin-2(1H)-one], the negative-log IC50 (pIC50) is 8.66.

Take `C[C@@H]1CCCN1CCCOc1ccc2c(c1)CCC(=O)N2c1cncnc1` [Compound No. 36, 6-{3-[(2R)-2-methylpyrrolidin-1-yl]propoxy}-1-(pyrimidin-5-yl)-3,4-dihydroquinolin-2(1H)-one]: the negative-log IC50 (pIC50) is 8.24.

For `C[C@@H]1CCCN1CCCOc1ccc2c(c1)CCC(=O)N2c1cnc2ccccc2c1` [Compound No. 37, 6-{3-[(2R)-2-methylpyrrolidin-1-yl]propoxy}-3,4-dihydro-2H-1,3′-biquinolin-2-one], the pIC50 was 8.51.

Regarding `C[C@@H]1CCCN1CCCOc1ccc2c(c1)CCC(=O)N2c1ccc2ncccc2c1` [Compound No. 38, 6-{3-[(2R)-2-methylpyrrolidin-1-yl]propoxy}-3,4-dihydro-2H-1,6′-biquinolin-2-one], the pIC50 was 8.54.

Turning to `C[C@@H]1CCCN1CCCOc1ccc2c(c1)CCC(=O)N2c1cnc2cccnc2c1` [Compound No. 39, 6-{3-[(2R)-2-methylpyrrolidin-1-yl]propoxy}-1-(1,5-naphthylizin-3-yl)-3,4-dihydroquinolin-2(1H)-one], the pIC50 was 8.36.

On to `C[C@@H]1CCCN1CCCOc1ccc2c(c1)CCC(=O)N2c1cncc2cccnc12` [Compound No. 40, 6-{3-[(2R)-2-methylpyrrolidin-1-yl]propoxy}-1-(1,6-naphthylizin-8-yl)-3,4-dihydroquinolin-2(1H)-one], for which the pIC50 was 7.70.

Take `C[C@@H]1CCCN1CCCOc1ccc2c(c1)CCC(=O)N2c1ccc2c(ccn2C(=O)OC(C)(C)C)c1` [Compound No. 41, tert-butyl 5-[6-{3-[(2R)-2-methylpyrrolidin-1-yl]propoxy}-2-oxo-3,4-dihydroquinolin-1(2H)-yl]-1H-indole-1-carboxylate]: the pIC50 was 7.28.

As to `C[C@@H]1CCCN1CCCOc1ccc2c(c1)CCC(=O)N2c1cn(C(=O)OC(C)(C)C)c2ccccc12` [Compound No. 42, tert-butyl 3-[6-{3-[(2R)-2-methylpyrrolidin-1-yl]propoxy}-2-oxo-3,4-dihydroquinolin-1(2H)-yl]-1H-indole-1-carboxylate], the pIC50 is 7.47.

On to `C[C@@H]1CCCN1CCCOc1ccc2c(c1)CCC(=O)N2c1ccc2c(c1)OCCO2` [Compound No. 43, 1-(2,3-dihydro-1,4-benzodioxin-6-yl)-6-{3-[(2R)-2-methylpyrrolidin-1-yl]propoxy}-3,4-dihydroquinolin-2(1H)-one], for which the pIC50 is 8.66.

Take `C[C@@H]1CCCN1CCCOc1ccc2c(c1)CCC(=O)N2c1ccc2c(c1)OCO2` [Compound No. 44, 1-(1,3-benzodioxol-5-yl)-6-{3-[(2R)-2-methylpyrrolidin-1-yl]propoxy}-3,4-dihydroquinolin-2(1H)-one]: the pIC50 was 8.92.

`C[C@@H]1CCCN1CCCOc1ccc2c(c1)CCC(=O)N2c1ccc2c(c1)OCC2` [Compound No. 45, 1-(2,3-dihydro-1-benzofuran-6-yl)-6-{3-[(2R)-2-methylpyrrolidin-1-yl]propoxy}-3,4-dihydroquinolin-2(1H)-one]: the pIC50 is 8.64.

For `C[C@@H]1CCCN1CCCOc1ccc2c(c1)CCC(=O)N2c1ccc(C#N)cn1` [Compound No. 46, 6-[6-{3-[(2R)-2-methylpyrrolidin-1-yl]propoxy}-2-oxo-3,4-dihydroquinolin-1(2H)-yl]pyridine-3-carbonitrile], the pIC50 is 7.66.

Take `Cc1ccc(N2C(=O)CCc3cc(OCCCN4CCC[C@H]4C)ccc32)cn1` [Compound No. 47, 1-(6-methylpyridin-3-yl)-6-{3-[(2R)-2-methylpyrrolidin-1-yl]propoxy}-3,4-dihydroquinolin-2(1H)-one]: the negative-log IC50 (pIC50) is 8.54.

For the compound `COc1ccc(N2C(=O)CCc3cc(OCCCN4CCC[C@H]4C)ccc32)cn1` [Compound No. 48, 1-(6-methoxypyridin-3-yl)-6-{3-[(2R)-2-methylpyrrolidin-1-yl]propoxy}-3,4-dihydroquinolin-2(1H)-one], the pIC50 is 8.06.

Regarding `C[C@@H]1CCCN1CCCOc1ccc2c(c1)CCC(=O)N2c1ccc(Cl)cn1` [Compound No. 49, 1-(5-chloropyridin-2-yl)-6-{3-[(2R)-2-methylpyrrolidin-1-yl]propoxy}-3,4-dihydroquinolin-2(1H)-one], the pIC50 is 8.40.

Turning to `C[C@@H]1CCCN1CCCOc1ccc2c(c1)CCC(=O)N2c1cncc(C#N)c1` [Compound No. 50, 5-[6-{3-[(2R)-2-methylpyrrolidin-1-yl]propoxy}-2-oxo-3,4-dihydroquinolin-1(2H)-yl]pyridine-3-carbonitrile], the pIC50 is 8.24.

Take `C[C@@H]1CCCN1CCCOc1ccc2c(c1)CCC(=O)N2c1ncccc1C#N` [Compound No. 51, 2-[6-{3-[(2R)-2-methylpyrrolidin-1-yl]propoxy}-2-oxo-3,4-dihydroquinolin-1(2H)-yl]pyridine-3-carbonitrile]: the pIC50 is 7.89.

Consider `C[C@@H]1CCCN1CCCOc1ccc2c(c1)CCC(=O)N2c1cncc(F)c1` [Compound No. 52, 1-(5-fluoropyridin-3-yl)-6-{3-[(2R)-2-methylpyrrolidin-1-yl]propoxy}-3,4-dihydroquinolin-2(1H)-one], for which the negative logarithm of the IC50 (pIC50) was 8.92.

Take `C[C@@H]1CCCN1CCCOc1ccc2c(c1)CCC(=O)N2c1ccn(C)c(=O)c1` [Compound No. 54, 1-(1-methyl-2-oxo-1,2-dihydropyridin-4-yl)-6-{3-[(2R)-2-methylpyrrolidin-1-yl]propoxy}-3,4-dihydroquinolin-2(1H)-one]: the pIC50 is 8.32.

For the compound `COc1ccc2ncc(N3C(=O)CCc4cc(OCCCN5CCC[C@H]5C)ccc43)cc2c1` [Compound No. 55, 6′-methoxy-6-{3-[(2R)-2-methylpyrrolidin-1-yl]propoxy}-3,4-dihydro-2H-1,3′-biquinolin-2-one], the pIC50 is 8.27.

For `C[C@@H]1CCCN1CCCOc1ccc2c(c1)CCC(=O)N2c1ccc2[nH]ccc2c1` [Compound No. 56, 1-(1H-indol-5-yl)-6-{3-[(2R)-2-methylpyrrolidin-1-yl]propoxy}-3,4-dihydroquinolin-2(1H)-one], the pIC50 is 8.89.

Regarding `C[C@@H]1CCCN1CCCOc1ccc2c(c1)CCC(=O)N2c1c[nH]c2ccccc12` [Compound No. 57, 1-(1H-indol-3-yl)-6-{3-[(2R)-2-methylpyrrolidin-1-yl]propoxy}-3,4-dihydroquinolin-2(1H)-one], the pIC50 is 9.12.

Regarding `CC(C)(C)N1CCC(Oc2ccc3c(c2)CCC(=O)N3c2cnc3ccccc3c2)CC1` [Compound No. 59, 6-[(1-tert-butylpiperidin-4-yl)oxy]-3,4-dihydro-2H-1,3′-biquinolin-2-one], the pIC50 was 8.07.

For the compound `CC(C)(C)N1CCC(Oc2ccc3c(c2)CCC(=O)N3c2ccccc2)CC1` [Compound No. 61, 6-[(1-tert-butylpiperidin-4-yl)oxy]-1-phenyl-3,4-dihydroquinolin-2(1H)-one], the pIC50 was 8.62.

Consider `CC(C)(C)N1CCC(Oc2ccc3c(c2)CCC(=O)N3c2ccc(C#N)cc2)CC1` [Compound No. 62, 4-{6-[(1-tert-butylpiperidin-4-yl)oxy]-2-oxo-3,4-dihydroquinolin-1(2H)-yl}benzonitrile], for which the pIC50 is 8.31.

As for `CC(C)(C)N1CCC(Oc2ccc3c(c2)CCC(=O)N3c2cccc(C#N)c2)CC1` [Compound No. 63, 3-{6-[(1-tert-butylpiperidin-4-yl)oxy]-2-oxo-3,4-dihydroquinolin-1(2H)-yl}benzonitrile], the pIC50 was 8.21.

In the case of `CC(C)(C)N1CCC(Oc2ccc3c(c2)CCC(=O)N3c2cncc(F)c2)CC1` [Compound No. 64, 6-[(1-tert-butylpiperidin-4-yl)oxy]-1-(5-fluoropyridin-3-yl)-3,4-dihydroquinolin-2(1H)-one], the pIC50 is 8.28.

For the compound `COc1ccc(N2C(=O)CCc3cc(OC4CCN(C(C)(C)C)CC4)ccc32)cn1` [Compound No. 65, 6-[(1-tert-butylpiperidin-4-yl)oxy]-1-(6-methoxypyridin-3-yl)-3,4-dihydroquinolin-2(1H)-one], the pIC50 is 7.92.

`CC(C)(C)N1CCC(Oc2ccc3c(c2)CCC(=O)N3c2ccc(F)cc2)CC1` [Compound No. 66, 6-[(1-tert-butylpiperidin-4-yl)oxy]-1-(4-fluorophenyl)-3,4-dihydroquinolin-2(1H)-one]: the pIC50 is 8.43.

In the case of `COc1ccc(N2C(=O)CCc3cc(OC4CCN(C5CCC5)CC4)ccc32)cn1` [Compound No. 67, 6-[(1-cyclobutylpiperidin-4-yl)oxy]-1-(6-methoxypyridin-3-yl)-3,4-dihydroquinolin-2(1H)-one], the pIC50 is 8.57.

As to `O=C1CCc2cc(OC3CCN(C4CCC4)CC3)ccc2N1c1cc(F)cc(F)c1` [Compound No. 68, 6-[(1-cyclobutylpiperidin-4-yl)oxy]-1-(3,5-difluorophenyl)-3,4-dihydroquinolin-2(1H)-one], the pIC50 is 9.14.

In the case of `O=C1CCc2cc(OC3CCN(C4CCC4)CC3)ccc2N1c1ccc(Cl)cc1` [Compound No. 70, 1-(4-chlorophenyl)-6-[(1-cyclobutylpiperidin-4-yl)oxy]-3,4-dihydroquinolin-2(1H)-one], the pIC50 is 9.12.

As usually defined, the pIC50 is the negative decadic logarithm of the IC50, by convention in mol/L.
